The target of this test is T1, LHRH rat pituitary receptor (Rattus norvegicus, UniProt P30969).
T1 construct: from tissue; host or cells: rat pituitary
T1 sequence (P30969 1-327): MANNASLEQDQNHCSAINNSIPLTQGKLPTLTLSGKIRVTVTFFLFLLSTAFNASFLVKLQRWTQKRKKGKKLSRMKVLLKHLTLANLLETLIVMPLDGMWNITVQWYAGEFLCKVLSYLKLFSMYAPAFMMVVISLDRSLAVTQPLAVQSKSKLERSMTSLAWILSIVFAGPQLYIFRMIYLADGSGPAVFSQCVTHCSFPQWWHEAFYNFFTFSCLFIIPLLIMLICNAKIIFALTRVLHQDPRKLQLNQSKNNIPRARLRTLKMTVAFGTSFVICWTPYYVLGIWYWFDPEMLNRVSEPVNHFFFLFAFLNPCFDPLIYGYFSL
The experiment in a line: LHRH rat pituitary receptor binding (pKI). The settings on record: negative logarithm of the equilibrium dissociation constants; for Ki: Table 1, read-out: receptor binding affinity (pKI) (converted). The method, then: Representative compounds of the present invention were evaluated in in vitro tests for LHRH rat pituitary receptor binding (pKI) and for LH inhibition from rat pituitary cells for antagonist potency (pA2). The tests employed the methods detailed in F. Haviv, et al. J. Med. Chem., 32: 2340-2344 (1989). The receptor binding affinity (pKI) is the negative logarithm of the equilibrium dissociation constants.

Regarding `CC[C@H]1OC(=O)[C@H](C)[C@@H](O[C@H]2C[C@@](C)(OC)[C@@H](O)[C@H](C)O2)[C@H](C)[C@@H](O[C@@H]2O[C@H](C)C[C@H](N(C)C(C)C)[C@H]2O)[C@](C)(OC)C[C@@H](C)C(=O)[C@H](C)[C@H]2N(CC3(c4ccc(Cl)c(Cl)c4)CC3)C(=O)O[C@]12C` [Example 10, 3'-N-Desmethyl-3'-N-isopropyl-11-deoxy-11-[carboxy-(α,α-cyclopropyl-3,4-dichlorophenethylamino)]-6-O-methyl-erythromycin A 11,12-(cyclic carbamate)], the Ki is 1.74 nM.

For the compound `CC[C@H]1OC(=O)[C@H](C)[C@@H](O[C@H]2C[C@@](C)(OC)[C@@H](O)[C@H](C)O2)[C@H](C)[C@@H](O[C@@H]2O[C@H](C)C[C@H](N(C)C3CCC3)[C@H]2O)[C@](C)(OC)C[C@@H](C)C(=O)[C@H](C)[C@H]2N(CC3(c4ccc(Cl)c(Cl)c4)CC3)C(=O)O[C@]12C` [Example 11, 3'-N-Desmethyl-3'-N-cyclobutyl-11-deoxy-11-[carboxy-(α,α-cyclopropyl-3,4-dichlorophenethylamino)]-6-O-methyl-erythromycin A 11,12-(cyclic carbamate)], the Ki is 3.09 nM.

For `CC[C@H]1OC(=O)[C@H](C)[C@@H](O[C@H]2C[C@@](C)(OC)[C@@H](O)[C@H](C)O2)[C@H](C)[C@@H](O[C@@H]2O[C@H](C)C[C@H](N(C)C3CCCC3)[C@H]2O)[C@](C)(OC)C[C@@H](C)C(=O)[C@H](C)[C@H]2N(CC3(c4ccc(Cl)c(Cl)c4)CC3)C(=O)O[C@]12C` [Example 12, 3'-N-Desmethyl-3'-N-cyclopentyl-11-deoxy-11-[carboxy-(α,α-cyclopropyl-3,4-dichlorophenethylamino)]-6-O-methyl-erythromycin A 11,12-(cycliccarbamate)], the Ki is 2.09 nM.

Consider `CC[C@H]1OC(=O)[C@H](C)[C@@H](O[C@H]2C[C@@](C)(OC)[C@@H](O)[C@H](C)O2)[C@H](C)[C@@H](O[C@@H]2O[C@H](C)C[C@H](N(C)C3CCCCC3)[C@H]2O)[C@](C)(OC)C[C@@H](C)C(=O)[C@H](C)[C@H]2N(CC3(c4ccc(Cl)c(Cl)c4)CC3)C(=O)O[C@]12C` [Example 13, 3'-N-Desmethyl-3'-N-cyclohexyl-11-deoxy-11-[carboxy-(α,α-cyclopropyl-3,4-dichlorophenethylamino)]-6-O-methyl-erythromycin A 11,12-(cyclic carbamate)], for which the Ki is 7.94 nM.

With `CCCN(C)[C@H]1C[C@@H](C)O[C@@H](O[C@@H]2[C@@H](C)[C@H](O[C@H]3C[C@@](C)(OC)[C@@H](O)[C@H](C)O3)[C@@H](C)C(=O)O[C@H](CC)[C@@]3(C)OC(=O)N(CCc4ccc5c(c4)OCO5)[C@@H]3[C@@H](C)C(=O)[C@H](C)C[C@@]2(C)OC)[C@@H]1O` [Example 14, 3'-N-Desmethyl-3'-N-n-propyl-11-deoxy-11-[carboxy-(3,4-dioxolanophenethylamino)]-6-O-methyl-erythromycin A 11,12-(cyclic carbamate)], the Ki was 1.78 nM.

With `CC[C@H]1OC(=O)[C@H](C)[C@@H](O[C@H]2C[C@@](C)(OC)[C@@H](O)[C@H](C)O2)[C@H](C)[C@@H](O[C@@H]2O[C@H](C)C[C@H](N(C)C3CCCC3)[C@H]2O)[C@](C)(OC)C[C@@H](C)C(=O)[C@H](C)[C@H]2N(CCc3ccc4c(c3)OCO4)C(=O)O[C@]12C` [Example 15, 3'-N-Desmethyl-3'-N-cyclopentyl-11-deoxy-11[carboxy-(3,4-dioxolanophenethylamino)]-6-O-methyl-erythromycin A 11,12-(cyclic carbamate)], the Ki was 6.31 nM.

Regarding `CC[C@H]1OC(=O)[C@H](C)[C@@H](O[C@H]2C[C@@](C)(OC)[C@@H](O)[C@H](C)O2)[C@H](C)[C@@H](O[C@@H]2O[C@H](C)C[C@H](N(C)C(C)C)[C@H]2O)[C@](C)(OC)C[C@@H](C)C(=O)[C@H](C)[C@H]2N(CCc3ccc(Cl)c(F)c3)C(=O)O[C@]12C` [Example 17, 3'-N-Desmethyl-3'-N-isopropyl-11-deoxy-11-[carboxy-(4-chloro-3-fluorophenethylamino)]-6-O-methyl-erythromycin A 11,12-(cyclic carbamate)], the Ki is 4.27 nM.

`CC[C@H]1OC(=O)[C@H](C)[C@@H](O[C@H]2C[C@@](C)(OC)[C@@H](O)[C@H](C)O2)[C@H](C)[C@@H](O[C@@H]2O[C@H](C)C[C@H](N(C)C3CCCC3)[C@H]2O)[C@](C)(OC)C[C@@H](C)C(=O)[C@H](C)[C@H]2N(CCc3ccc(Cl)c(F)c3)C(=O)O[C@]12C` [Example 18, 3'-N-Desmethyl-3'-N-cyclopentyl-11-deoxy-11-[carboxy-(4-chloro-3-fluorophenethylamino)]-6-O-methyl-erythromycin A 11,12-(cyclic carbamate)]: the Ki is 5.89 nM.

In the case of `CC[C@H]1OC(=O)[C@H](C)[C@@H](O[C@H]2C[C@@](C)(OC)[C@@H](O)[C@H](C)O2)[C@H](C)[C@@H](O[C@@H]2O[C@H](C)C[C@H](N(C)CC3CCC3)[C@H]2O)[C@](C)(OC)C[C@@H](C)C(=O)[C@H](C)[C@H]2N(CCc3ccc(Cl)cc3)C(=O)O[C@]12C` [Example 19, 3'-N-Desmethyl-3'-N-cyclobutylmethyl-11-deoxy-11-[carboxy-(4-chlorophenethylamino)]-6-O-methyl-erythromycin A 11,12-(cyclic carbamate)], the Ki was 1.58 nM.

For `CC[C@H]1OC(=O)[C@H](C)[C@@H](O[C@H]2C[C@@](C)(OC)[C@@H](O)[C@H](C)O2)[C@H](C)[C@@H](O[C@@H]2O[C@H](C)C[C@H](N(C)C3CCCC3)[C@H]2O)[C@](C)(OC)C[C@@H](C)C(=O)[C@H](C)[C@H]2N(CCc3cccc(Cl)c3)C(=O)O[C@]12C` [Example 24, 3'-N-Desmethyl-3'-N-cyclopentyl-11-deoxy-11-[carboxy-(3-chlorophenethylamino)]-6-O-methyl-erythromycin A 11,12-(cyclic carbamate)], the Ki was 2.75 nM.

Regarding `CC[C@H]1OC(=O)[C@H](C)[C@@H](O[C@H]2C[C@@](C)(OC)[C@@H](O)[C@H](C)O2)[C@H](C)[C@@H](O[C@@H]2O[C@H](C)C[C@H](N(C)Cc3ccncc3)[C@H]2O)[C@](C)(OC)C[C@@H](C)C(=O)[C@H](C)[C@H]2N(CCc3ccc(Cl)cc3)C(=O)O[C@]12C` [Example 34, 3'-N-Desmethyl-3'-N-(4-pyridylmethyl)-11-deoxy-11-[carboxy-(4-chlorophenethylamino)]-6-O-methyl-erythromycin A 11,12-(cyclic carbamate)], the Ki was 10 nM.

On to `CCC(C)N(C)[C@H]1C[C@@H](C)O[C@@H](O[C@@H]2[C@@H](C)[C@H](O[C@H]3C[C@@](C)(OC)[C@@H](O)[C@H](C)O3)[C@@H](C)C(=O)O[C@H](CC)[C@@]3(C)OC(=O)N(CCc4ccc(Cl)cc4)[C@@H]3[C@@H](C)C(=O)[C@H](C)C[C@@]2(C)OC)[C@@H]1O` (stereo partly shown) [Example 35, 3'-N-Desmethyl-3'-N-(2-butyl)-11-deoxy-11-[carboxy-(4-chlorophenethylamino)]-6-O-methyl-erythromycin A 11,12-(cyclic carbamate)], for which the Ki was 7.59 nM.

Regarding `CCC(CC)N(C)[C@H]1C[C@@H](C)O[C@@H](O[C@@H]2[C@@H](C)[C@H](O[C@H]3C[C@@](C)(OC)[C@@H](O)[C@H](C)O3)[C@@H](C)C(=O)O[C@H](CC)[C@@]3(C)OC(=O)N(CCc4ccc(Cl)cc4)[C@@H]3[C@@H](C)C(=O)[C@H](C)C[C@@]2(C)OC)[C@@H]1O` [Example 36, 3'-N-Desmethyl-3'-N-(3-pentyl)-11-deoxy-11-[carboxy-(4-chlorophenethylamino)]-6-O-methyl-erythromycin A 11,12-(cyclic carbamate)], the Ki was 9.12 nM.

Turning to `CC[C@H]1OC(=O)[C@H](C)[C@@H](O[C@H]2C[C@@](C)(OC)[C@@H](O)[C@H](C)O2)[C@H](C)[C@@H](O[C@@H]2O[C@H](C)C[C@H](N(C)CC3CC3)[C@H]2O)[C@](C)(OC)C[C@@H](C)C(=O)[C@H](C)[C@H]2N(CCc3ccc(Cl)cc3)C(=O)O[C@]12C` [Example 37, 3'-N-Desmethyl-3'-N-(cyclopropylmethyl)-11-deoxy-11-[carboxy-(4-chlorophenethylamino)]-6-O-methyl-erythromycin A 11,12-(cyclic carbamate)], the Ki was 9.12 nM.

As to `CC[C@H]1OC(=O)[C@H](C)[C@@H](O[C@H]2C[C@@](C)(OC)[C@@H](O)[C@H](C)O2)[C@H](C)[C@@H](O[C@@H]2O[C@H](C)C[C@H](N(C)CCC3CC3)[C@H]2O)[C@](C)(OC)C[C@@H](C)C(=O)[C@H](C)[C@H]2N(CCc3ccc(Cl)cc3)C(=O)O[C@]12C` [Example 38, 3'-N-Desmethyl-3'-N-[2-(cyclopropyl)-ethyl]-11-deoxy-11-[carboxy-(4-chlorophenethylamino)]-6-O-methyl-erythromycin A 11,12-(cyclic carbamate)], for the setting “Table 1”, the “receptor binding affinity (pKI)” value came to 8.17.

Take `CCCN(C)[C@H]1C[C@@H](C)O[C@@H](O[C@@H]2[C@@H](C)[C@H](O[C@H]3C[C@@](C)(OC)[C@@H](O)[C@H](C)O3)[C@@H](C)C(=O)O[C@H](CC)[C@@]3(C)OC(=O)N(CCc4ccc(OC)cc4)[C@@H]3[C@@H](C)C(=O)[C@H](C)C[C@@]2(C)OC)[C@@H]1O` [Example 39, 3'-N-Desmethyl-3'-N-propyl-11-deoxy-11-[carboxy-(4-methoxyphenethylamino)]-6-O-methyl-erythromycin A 11,12-(cyclic carbamate)]: the Ki was 5.13 nM.

These data come from patent US5955440A, “Macrolide LHRH antagonists” (Abbott Laboratories, priority 1998, dated 1999).
